Data reported in patent publication US20230285606A1, “METHODS AND AGENTS FOR THE DETECTION AND TREATMENT OF CANCER” (CASE WESTERN RESERVE UNIVERSITY, priority 2020, published 2023).
No end group written: not given here.

What was measured:
[1] = test system: heterotopic xenograft flank U87 tumor implants; experiment: In vivo fluorescence imaging of heterotopic xenograft U87 flank tumors; conditions: mice with U87 flank tumors; fluorophore-conjugated peptide injected via tail vein; FIG. 1/FIG. 2
Method: (§1) The human U87-MG and LN-229 glioma cell line was purchased from American Type Culture Collection (Manassas, Va., USA) and cultured. NIH athymic nude mice (5-8 weeks and 20-25 g on arrival; NCI-NIH) were maintained at the Athymic Animal Core Facility at Case Western Reserve University according to institutional policies. All animal protocols were approved by the Institutional Animal Care and Use Committee (IACUC). The cells were diluted in a 1:1 mixture of PBS and BD MATRIGEL Matrix (BD Biosciences, Franklin Lakes, N.J., USA), and injected into the right flank of nude athymic mice (NCr-nu/+, NCr-nu/nu, 20-25 g each). The Matrigel-cell mixture was loaded into a 1-ml syringe fitted with a 26-gauge needle and kept on ice. The mixture was injected subcutaneously in the right flank region of the mouse. Flank tumors were grown for 2 to 3 weeks. Each flank was implanted with 1.4-2×10^6 cells. To correlate tumor position with GFP fluorescence, mice were imaged using the Perkin-Elmer MAESTRO FLEX In vivo Imaging System. For in vivo analyses, the mice were anesthetized with inhaled isoflurane/oxygen and imaged. For ex vivo analyses, mice were sacrificed by decapitation. […]
(§2) Nude mice with heterotopic (flank) tumors were typically imaged 3 to 6 weeks following tumor initiation. […] Average radiant intensity units, calculated by the LivingImage software, were obtained for each ROI. […]

[2] = test system: heterotopic xenograft flank U87 tumor implants overexpressing PTPmu; experiment: In vivo fluorescence imaging of heterotopic xenograft U87 flank tumors overexpressing PTPmu; conditions: mice with U87 flank tumors overexpressing PTPmu; FIG. 2
Method: as §1, §2

Row | Substance | in vivo average radiant efficiency [1] | in vivo average radiant efficiency [2]
1 | Peptide 2: SBK linked to a fluorophore with a polyglycine peptide spacer (GEGDDFNWEQVNTLTKPTSD; also: fluorophore linked via polyglycine spacer, not defined) | increased average radiant efficiency compared to the first agent, without a spacer, and the control agent | 
2 | Peptide 3: SBK linked to a fluorophore with a glycine/serine spacer (GEGDDFNWEQVNTLTKPTSD; also: fluorophore linked via glycine/serine spacer, not defined) | increased average radiant efficiency compared to the second agent | increased average radiant efficiency compared to the second agent
